How the values were obtained:
ALDH1A1 = target: T1, ALDH1A1 (Homo sapiens, UniProt P00352); test: Selectivity biochemical assay, NAD(P)H-Glo Detection System
T1 construct: His-tag; made in house; host or cells: E. coli Rosetta (DE3)
T1 sequence (P00352 1-501): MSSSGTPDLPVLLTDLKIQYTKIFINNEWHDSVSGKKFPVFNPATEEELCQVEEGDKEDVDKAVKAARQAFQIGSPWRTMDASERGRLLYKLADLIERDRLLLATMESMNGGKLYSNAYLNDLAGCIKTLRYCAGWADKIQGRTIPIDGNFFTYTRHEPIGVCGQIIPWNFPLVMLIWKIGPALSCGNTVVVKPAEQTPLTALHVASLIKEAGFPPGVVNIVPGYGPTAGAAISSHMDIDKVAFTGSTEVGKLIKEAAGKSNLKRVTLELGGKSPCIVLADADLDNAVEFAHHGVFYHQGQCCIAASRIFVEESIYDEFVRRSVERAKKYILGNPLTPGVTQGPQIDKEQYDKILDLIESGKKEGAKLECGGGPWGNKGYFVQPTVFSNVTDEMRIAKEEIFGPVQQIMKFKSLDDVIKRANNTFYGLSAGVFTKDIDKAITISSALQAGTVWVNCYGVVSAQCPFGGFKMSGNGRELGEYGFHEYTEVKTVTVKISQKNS
Procedure, shortened: (§1)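 Recombinant full-length His-tagged human enzymes expressed in E. coli were pre-incubated 30 min at room temperature with compound (10-point, 3-fold series; top 20 μM for ALDH1A3, 250 μM for ALDH1A1/1A2). Propionaldehyde and NAD were then added at Km; NADH was read by NAD(P)H-Glo luminescence. Buffer: Tris (pH 7.6 for 1A1/1A2, 9.0 for 1A3), 1 mM TCEP, 0.01% Tween-20.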

ALDH1A2 = target: T2, ALDH1A2 (Homo sapiens, UniProt O94788); test: as above
T2 construct: His-tag; made in house; host or cells: E. coli Rosetta (DE3)
T2 sequence (O94788 1-518): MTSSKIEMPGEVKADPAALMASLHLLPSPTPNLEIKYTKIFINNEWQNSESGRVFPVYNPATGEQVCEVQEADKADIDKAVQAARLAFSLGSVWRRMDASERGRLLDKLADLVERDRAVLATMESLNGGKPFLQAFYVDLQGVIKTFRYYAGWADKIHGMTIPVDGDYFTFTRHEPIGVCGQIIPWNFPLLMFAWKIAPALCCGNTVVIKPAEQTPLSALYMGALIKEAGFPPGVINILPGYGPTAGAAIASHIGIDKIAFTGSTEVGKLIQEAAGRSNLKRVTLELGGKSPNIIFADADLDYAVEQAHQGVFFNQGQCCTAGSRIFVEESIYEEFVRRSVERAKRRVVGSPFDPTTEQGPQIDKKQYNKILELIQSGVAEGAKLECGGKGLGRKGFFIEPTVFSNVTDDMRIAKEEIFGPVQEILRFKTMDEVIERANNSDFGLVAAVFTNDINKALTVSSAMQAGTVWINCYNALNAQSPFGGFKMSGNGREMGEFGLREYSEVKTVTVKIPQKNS
Procedure, shortened: as §1

SMILES	IC50 (ALDH1A1) [µM]	IC50 (ALDH1A2) [µM]
O=C1CCc2cc(NC(=O)c3scnc3-c3ccc(F)cc3)ccc2N1 [ALDHI-1017, 4-(4-fluorophenyl)-N-(2-oxo-1,2,3,4-tetrahydroquinolin-6-yl)thiazole-5-carboxamide]	≥ 100	1 to 10
O=C1CCc2cc(OCCN3CCCC3c3ccccc3F)ccc2N1 (stereo not drawn) [ALDHI-2002, 6-[2-[2-(2-fluorophenyl)pyrrolidin-1-yl]ethoxy]-3,4-dihydro-1H-quinolin-2-one]	≥ 100	10 to 100
O=C1CSc2cc(OCCN3CCCC3c3cccnc3)ccc2N1 (stereo not drawn) [ALDHI-2028, 7-[2-[2-(3-pyridyl)pyrrolidin-1-yl]ethoxy]-4H-1,4-benzothiazin-3-one]	≥ 100	≥ 100
O=C1CCc2cc(OCCN3CCOCC3c3cccc(F)c3)ccc2N1 (stereo not drawn) [ALDHI-2031, 6-[2-[3-(3-fluorophenyl)morpholin-4-yl]ethoxy]-3,4-dihydro-1H-quinolin-2-one]	≥ 100	0.1 to 1
O=C1CCc2cc(OCCN3C(=O)CCC3c3ccccc3)ccc2N1 (stereo not drawn) [ALDHI-2051, 6-[2-(2-oxo-5-phenyl-pyrrolidin-1-yl)ethoxy]-3,4-dihydro-1H-quinolin-2-one]	≥ 100	1 to 10
O=C1CSc2cc(OCCN3CCCC3c3ccncc3)ccc2N1 (stereo not drawn) [ALDHI-2029, 7-[2-[2-(4-pyridyl)pyrrolidin-1-yl]ethoxy]-4H-1,4-benzothiazin-3-one]	≥ 100	10 to 100
O=C1CCc2cc(NC(=O)c3sc(N4CC(O)C4)nc3-c3cccc(F)c3)ccc2N1 [ALDHI-1004, 4-(3-fluorophenyl)-2-(3-hydroxyazetidin-1-yl)-N-(2-oxo-3,4-dihydro-1H-quinolin-6-yl)thiazole-5-carboxamide]	≥ 100	≥ 100
Cc1ccccc1C1CCCN1CCOc1ccc2c(c1)CCC(=O)N2 (stereo not drawn) [ALDHI-2012, 6-[2-[2-(o-tolyl)pyrrolidin-1-yl]ethoxy]-3,4-dihydro-1H-quinolin-2-one]	≥ 100	≥ 100
C[C@H](c1ccccc1)N(CCO)CCOc1ccc2c(c1)CCC(=O)N2 [ALDHI-3006, 6-[2-[2-hydroxyethyl-[(1R)-1-phenylethyl]amino]ethoxy]-3,4-dihydro-1H-quinolin-2-one]	10 to 100	1 to 10
O=C1CCc2cc(OCCN3CCCC3c3cc(F)cc(F)c3)ccc2N1 (stereo not drawn) [ALDHI-2032, 6-[2-[2-(3,5-difluorophenyl)pyrrolidin-1-yl]ethoxy]-3,4-dihydro-1H-quinolin-2-one]	10 to 100	0.1 to 1
CN(CCOc1ccc2c(c1)CCC(=O)N2)Cc1cccnc1 [ALDHI-3010, 6-[2-[methyl(3-pyridylmethyl)amino]ethoxy]-3,4-dihydro-1H-quinolin-2-one]	10 to 100	10 to 100
O=C1CCc2cc(OCCn3nccc3-c3cccc(F)c3)ccc2N1 [ALDHI-2023, 6-[2-[5-(3-fluorophenyl)pyrazol-1-yl]ethoxy]-3,4-dihydro-1H-quinolin-2-one]	≥ 100	< 0.1
O=C1CCc2cc(NC(=O)c3ocnc3-c3cccc(F)c3)ccc2N1 [ALDHI-1019, 4-(3-fluorophenyl)-N-(2-oxo-3,4-dihydro-1H-quinolin-6-yl)oxazole-5-carboxamide]	≥ 100	≥ 100
O=C1CCc2cc(NC(=O)c3ncsc3-c3ccsc3)ccc2N1 [ALDHI-1011, N-(2-oxo-3,4-dihydro-1H-quinolin-6-yl)-5-(3-thienyl)thiazole-4-carboxamide]	≥ 100	1 to 10
O=C1CCc2cc(NC(=O)c3scnc3-c3cccs3)ccc2N1 [ALDHI-1023, N-(2-oxo-3,4-dihydro-1H-quinolin-6-yl)-4-(2-thienyl)thiazole-5-carboxamide]	≥ 100	0.1 to 1
Cc1cccc(-c2ncsc2C(=O)Nc2ccc3c(c2)CCC(=O)N3)c1 [ALDHI-1013, 4-(m-tolyl)-N-(2-oxo-3,4-dihydro-1H-quinolin-6-yl)thiazole-5-carboxamide]	≥ 100	1 to 10
O=C1CCc2cc(NC(=O)c3ncsc3-c3cccnc3)ccc2N1 [ALDHI-1010, N-(2-oxo-3,4-dihydro-1H-quinolin-6-yl)-5-(3-pyridyl)thiazole-4-carboxamide]	≥ 100	1 to 10
O=C1CCc2cc(OCCN3CC(F)(F)CC3c3cccc(F)c3)ccc2N1 (stereo not drawn) [ALDHI-2053, 6-[2-[4,4-difluoro-2-(3-fluorophenyl)pyrrolidin-1-yl]ethoxy]-3,4-dihydro-1H-quinolin-2-one]	≥ 100	1 to 10
Cc1noc(-c2ccccc2C(=O)Nc2ccc3c(c2)CCC(=O)N3)n1 [ALDHI-1008, 2-(3-methyl-1,2,4-oxadiazol-5-yl)-N-(2-oxo-1,2,3,4-tetrahydroquinolin-6-yl)benzamide]	≥ 100	1 to 10
CCN(CC)CCN(CCOc1ccc2c(c1)CCC(=O)N2)Cc1ccccc1 [ALDHI-3004, 6-[2-[benzyl-[2-(diethylamino)ethyl]amino]ethoxy]-3,4-dihydro-1H-quinolin-2-one]	≥ 100	1 to 10
O=C1CCc2cc(OCCN(CCO)Cc3cccnc3)ccc2N1 [ALDHI-3005, 6-[2-[2-hydroxyethyl(3-pyridylmethyl)amino]ethoxy]-3,4-dihydro-1H-quinolin-2-one]	≥ 100	10 to 100
O=C1CSc2cc(OCCN3CCCC3c3ccccn3)ccc2N1 (stereo not drawn) [ALDHI-2027, 7-[2-[2-(2-pyridyl)pyrrolidin-1-yl]ethoxy]-4H-1,4-benzothiazin-3-one]	≥ 100	10 to 100
O=C1CCc2cc(OCCN3CCCC3c3ccncc3)ccc2N1 (stereo not drawn) [ALDHI-2004, 6-[2-[2-(4-pyridyl)pyrrolidin-1-yl]ethoxy]-3,4-dihydro-1H-quinolin-2-one]	≥ 100	10 to 100
COc1cccc(C2CCCN2CCOc2ccc3c(c2)CCC(=O)N3)c1 (stereo not drawn) [ALDHI-2034, 6-[2-[2-(3-methoxyphenyl)pyrrolidin-1-yl]ethoxy]-3,4-dihydro-1H-quinolin-2-one]	≥ 100	10 to 100
CCn1cc(C2CCCN2CCOc2ccc3c(c2)CCC(=O)N3)cn1 (stereo not drawn) [ALDHI-2016, 6-[2-[2-(1-ethylpyrazol-4-yl)pyrrolidin-1-yl]ethoxy]-3,4-dihydro-1H-quinolin-2-one]	≥ 100	≥ 100
O=C1CCc2cc(NC(=O)c3sccc3-c3cccc(F)c3)ccc2N1 [ALDHI-1022, 3-(3-fluorophenyl)-N-(2-oxo-3,4-dihydro-1H-quinolin-6-yl)thiophene-2-carboxamide]	10 to 100	1 to 10
CC1Oc2cc(OCCN3CCCC3c3cccc(F)c3)ccc2NC1=O (stereo not drawn) [ALDHI-2044, 7-[2-[2-(3-fluorophenyl)pyrrolidin-1-yl]ethoxy]-2-methyl-4H-1,4-benzoxazin-3-one]	≥ 100	10 to 100
O=C1CCc2cc(OCCn3ccnc3-c3ccccc3)ccc2N1 [ALDHI-2041, 6-[2-(2-phenylimidazol-1-yl)ethoxy]-3,4-dihydro-1H-quinolin-2-one]	≥ 100	1 to 10
O=C1CCc2cc(NC(=O)c3sc(N4CCOCC4)nc3-c3cccc(F)c3)ccc2N1 [ALDHI-1001, 4-(3-fluorophenyl)-2-morpholino-N-(2-oxo-3,4-dihydro-1H-quinolin-6-yl)thiazole-5-carboxamide]	≥ 100	≥ 100
O=C1CCc2cc(NC(=O)c3scnc3-c3cccc(F)c3)ccc2N1 [ALDHI-1003, 4-(3-fluorophenyl)-N-(2-oxo-3,4-dihydro-1H-quinolin-6-yl)thiazole-5-carboxamide]	≥ 100	1 to 10
